Reference: publication PMC9022229, “Induction of Paraptosis by Cyclometalated Iridium Complex-Peptide Hybrids and CGP37157 via a Mitochondrial Ca^2+ Overload Triggered by Membrane Fusion between Mitochondria and the Endoplasmic Reticulum” (Biochemistry, 2022)
Residues, ends and D or L forms follow the SMILES beside them. *: point of attachment. X1 = O=C(COc1ccc(-c2ccccn2)cc1)NCCCCCCCCN*

Tests used:
Assay type in all cases: cell-based
[1] = system: mitofusin 2 (MFN2); experiment: Western blot analysis of MFN2 in Jurkat cells
Procedure: In a 1.5 mL Eppendorf tube, Jurkat cells (1.0 × 10^6 cells) were incubated in the presence of 4 ([…]), CGP37157 (100 μM for 0–24 h or 0–100 μM for 12 h), and celastrol (0–10 μM for 24 h or 1 μM for 0–24 h) at 37 °C under 5% CO2. After the cells had been washed twice with PBS, the proteins were extracted by using RIPA buffer (Nacalai Tesque) and quantified using a Pierce BCA Protein Assay Kit (Thermo Scientific). Proteins (7.5 μg/well) for MFNs and DRP1 and proteins (5.0 μg/well) for GAPDH were used for sodium dodecyl sulfate–polyacrylamide gel electrophoresis (SDS–PAGE) (7.5% for MFNs and DRP1 and 10% for GAPDH) (Bio-Rad). After SDS–PAGE, the proteins were transferred to a polyvinylidene fluoride membrane (Merck Millipore) by using a semi dry blotter (Bio-Rad). The membrane was blocked with Blocking One solution (Nacalai Tesque) for 30 min at room temperature. After being blocked, the membrane was washed three times with 1× TBST and treated with primary antibodies overnight (at a dilution of 1/1000 for MFNs and DRP1 or 1/2000 for GAPDH) in a signal enhancer HIKARI-solution A (Nacalai Tesque). The membrane was washed three times with 1× TBST and treated with the anti-mouse or anti-rabbit IgG HRP-conjugated secondary antibody (at a dilution of 1/4000 for MFNs and DRP1 or 1/10000 for GAPDH) in 1× TBST for 60 min at room temperature. The protein signal was spotted with a Chemi-Lumi One Ultra solution (Nacalai Tesque) using the ChemiDoc MP system (Bio-Rad). […]

[2] = system: dynamin-related protein 1 (DRP1); experiment: Western blot analysis of DRP1 in Jurkat cells
Procedure: In a 1.5 mL Eppendorf tube, Jurkat cells (1.0 × 10^6 cells) were incubated in the presence of 4 ([…]), CGP37157 (100 μM for 0–24 h or 0–100 μM for 12 h), and celastrol (0–10 μM for 24 h or 1 μM for 0–24 h) at 37 °C under 5% CO2. After the cells had been washed twice with PBS, the proteins were extracted by using RIPA buffer (Nacalai Tesque) and quantified using a Pierce BCA Protein Assay Kit (Thermo Scientific). Proteins (7.5 μg/well) for MFNs and DRP1 and proteins (5.0 μg/well) for GAPDH were used for sodium dodecyl sulfate–polyacrylamide gel electrophoresis (SDS–PAGE) (7.5% for MFNs and DRP1 and 10% for GAPDH) (Bio-Rad). After SDS–PAGE, the proteins were transferred to a polyvinylidene fluoride membrane (Merck Millipore) by using a semi dry blotter (Bio-Rad). The membrane was blocked with Blocking One solution (Nacalai Tesque) for 30 min at room temperature. After being blocked, the membrane was washed three times with 1× TBST and treated with primary antibodies overnight (at a dilution of 1/1000 for MFNs and DRP1 or 1/2000 for GAPDH) in a signal enhancer HIKARI-solution A (Nacalai Tesque). The membrane was washed three times with 1× TBST and treated with the anti-mouse or anti-rabbit IgG HRP-conjugated secondary antibody (at a dilution of 1/4000 for MFNs and DRP1 or 1/10000 for GAPDH) in 1× TBST for 60 min at room temperature. The protein signal was spotted with a Chemi-Lumi One Ultra solution (Nacalai Tesque) using the ChemiDoc MP system (Bio-Rad).

[3] = system: Jurkat cells; experiment: Mitochondria-ER membrane fusion, co-staining with MitoTracker Green and ER-Tracker Red
Procedure: To verify this hypothesis, mitochondria and the ER were stained with both MitoTracker Green and ER-Tracker Red in the presence of 4, CGP37157, and celastrol (Figure 8). Jurkat cells were stained with MitoTracker Green (0.5 μM) and ER-Tracker Red (1 μM) and then treated with 4 (5 μM) for 10–30 min (time-dependent microscopic images are presented in Figure S5). […] With regard to CGP37157 and celastrol, Jurkat cells were stained with MitoTracker Green (0.5 μM) and ER-Tracker Red (1 μM) and then treated with CGP37157 (100 μM) and celastrol (1 μM) for 1–24 h (Figure 8 and Figure S5).
In a 1.5 mL Eppendorf tube, Jurkat cells (2.0 × 10^5 cells) were stained with MitoTracker Green (0.5 μM) for 1 h at 37 °C under 5% CO2 and then ER-Tracker Red (1 μM) for 1 h at 37 °C under 5% CO2 in 10% FBS/RPMI 1640 medium (100 μL). After being washed with PBS, the cells were treated with 4 (5 μM) in 10% FBS/RPMI 1640 medium (100 μL) for 0–30 min at 37 °C under 5% CO2. For CGP37157 and celastrol, Jurkat cells were treated with CGP37157 (100 μM) or celastrol (1 μM) in 10% FBS/RPMI 1640 medium (100 μL) for 0–24 h, after which the cells were stained with MitoTracker Green (0.5 μM) for 1 h at 37 °C under 5% CO2 and then ER-Tracker Red (1 μM) for 1 h at 37 °C under 5% CO2 in PBS. The cells were washed with PBS and observed by confocal microscopy (Fluoview, FV-1000, Olympus) using a Greiner CELLview dish (35 mm × 10 mm). Excitation at 473 nm and emission from 485 to 545 nm were used for MitoTracker Green. Excitation at 559 nm and emission from 570 to 620 nm were used for ER-Tracker Red. The exposure time was 20 μs/pixel.

[4] = system: MFN1- and/or MFN2-KD Jurkat cells; experiment: MTT assay of MFN1- and/or MFN2-KD Jurkat cells; settings: siRNA 10 nM, three independent experiments
Procedure: The roles of MFNs in the cell death induced by 4 and CGP37157 were examined by using small interfering RNA (siRNA) for MFN1 and MFN2 to knock down (KD) these proteins. […] The cytotoxicity of 4 and CGP37157 against MFN1- and/or MFN2-KD Jurkat cells was evaluated by MTT assays. […] The effect of a negative control siRNA (NCsiRNA) on the expression levels of MFNs and the cell viability of Jurkat cells was negligible, implying that MFNs are […] to the paraptosis induced by 4 and CGP37157. It should be noted that the treatment with siRNA at 5 nM for 72 h was toxic against Jurkat cells in the presence of 4 and CGP37157, although the efficiency of knockdown of these proteins by siRNA could be improved by increasing the incubation time, as shown in Figure S11.
To a solution of transfection reagent (INTERFERin, 5 μL) in OPTI-MEM (0.3 mL) in a 1.5 mL Eppendorf tube was added siRNA (10 μM, 1 or 2 μL) in H2O, and the resulting solution was allowed to stand for 15 min at room temperature. The resulting solution was then added to Jurkat cells (2.0 × 10^5 cells/mL, 1.5 mL) in 10% FBS/RPMI 1640 medium that had been seeded on a 12-well plate and incubated overnight at 37 °C under 5% CO2 (the final concentration of siRNA was 5 or 10 nM), and the resulting solution was incubated for 48 or 72 h at 37 °C under 5% CO2. The cells were collected by centrifugation (2000 rpm, 3 min, 4 °C), and the expression levels of MFNs were evaluated by Western blot analysis as described above. The cytotoxicity of 4 (3 or 5 μM), CGP37157 (50 or 100 μM), and celastrol (1 μM) against MFNs-KD Jurkat cells was evaluated by MTT assays as described above.

[5] = Figure S8A, 4 at 1 µM, 1 h per legend
[6] = Figure S8A, 4 at 2.5 µM, 1 h per legend
[7] = Figure S8A, 4 at 5 µM, 1 h per legend
[8] = Figure S8A, 4 at 10 µM, 1 h per legend
[9] = Figure S8A, 4 at 20 µM, 1 h per legend
[10] = Figure S8B, CGP37157 10 µM, 12 h
[11] = Figure S8B, CGP37157 20 µM, 12 h
[12] = Figure S8B, CGP37157 50 µM, 12 h
[13] = Figure S8B, CGP37157 80 µM, 12 h
[14] = Figure S8B, CGP37157 100 µM, 12 h

**Q.** How did the “Expression level of MFN2 (Figure 11A)” value ([1]; 4 at 5 μM, 30 min to 1 h) turn out when `NCCCC[C@H](NC(=O)[C@H](CCCCN)NC(=O)[C@@H](N)CCCCN)C(=O)NCC(=O)NCC(=O)NCCCCCCCCNC(=O)COc1ccc(-c2ccccn2)cc1` [compound 4] (H-KKKGG-X1) was run?
**A.** weakly changed

**Q.** And the “MFN2 band intensity relative to absence of compound” value [1, 5]?
**A.** 1.3

**Q.** What about the “MFN2 band intensity relative to absence of compound” value [1, 6] of the same molecule?
**A.** 1.3

**Q.** What about the “MFN2 band intensity relative to absence of compound” value [1, 7] of the same molecule?
**A.** 1.4

**Q.** And the “MFN2 band intensity relative to absence of compound” value [1, 8]?
**A.** 1.4

**Q.** What about the “MFN2 band intensity relative to absence of compound” value [1, 9] of the same molecule?
**A.** 1.3

**Q.** What about the “Expression level of DRP1 (Figure 11A)” value ([2]; 4 at 5 μM, 30 min to 1 h) of the same molecule?
**A.** somewhat upregulated

**Q.** What about the “DRP1 band intensity relative to absence of compound” value [2, 5] of the same molecule?
**A.** 2.0

**Q.** What about the “DRP1 band intensity relative to absence of compound” value [2, 6] of the same molecule?
**A.** 2.5

**Q.** And the “DRP1 band intensity relative to absence of compound” value [2, 7]?
**A.** 2.6

**Q.** What about the “DRP1 band intensity relative to absence of compound” value [2, 8] of the same molecule?
**A.** 2.6

**Q.** And the “DRP1 band intensity relative to absence of compound” value [2, 9]?
**A.** 1.0

**Q.** What about the “Overlap of MitoTracker Green and ER-Tracker Red emission (mitochondria-ER membrane fusion)” value ([3]; 4 at 5 μM, 10 min) of the same molecule?
**A.** extensively overlapped

**Q.** And the “Effect of knockdown of MFNs on cell death induced by the compound” value ([4]; 4 at 3 or 5 µM, 1 h)?
**A.** weakly inhibited

**Q.** Which “Expression level of MFN2 (Figure 11B)” value ([1]; CGP37157 100 μM, 1–6 h) does the source give for `O=C1CSC(c2ccccc2Cl)c2cc(Cl)ccc2N1` (stereo not shown) [CGP37157] here?
**A.** weakly changed

**Q.** And the “MFN2 band intensity relative to absence of compound” value [1, 10]?
**A.** 1.1

**Q.** What about the “MFN2 band intensity relative to absence of compound” value [1, 11] of the same molecule?
**A.** 1.6

**Q.** And the “MFN2 band intensity relative to absence of compound” value [1, 12]?
**A.** 1.4

**Q.** And the “MFN2 band intensity relative to absence of compound” value [1, 13]?
**A.** 1.2

**Q.** What about the “MFN2 band intensity relative to absence of compound” value [1, 14] of the same molecule?
**A.** 0.95

**Q.** What about the “Expression level of DRP1 (Figure 11B)” value ([2]; CGP37157 100 μM, 1–6 h) of the same molecule?
**A.** somewhat upregulated

**Q.** And the “DRP1 band intensity relative to absence of compound” value [2, 10]?
**A.** 1.6

**Q.** And the “DRP1 band intensity relative to absence of compound” value [2, 11]?
**A.** 1.7

**Q.** What about the “DRP1 band intensity relative to absence of compound” value [2, 12] of the same molecule?
**A.** 1.3

**Q.** What about the “DRP1 band intensity relative to absence of compound” value [2, 13] of the same molecule?
**A.** 1.4

**Q.** What about the “DRP1 band intensity relative to absence of compound” value [2, 14] of the same molecule?
**A.** 0.89

**Q.** What about the “Overlap of MitoTracker Green and ER-Tracker Red emission (mitochondria-ER membrane fusion)” value ([3]; CGP37157 100 μM, 6 h) of the same molecule?
**A.** extensively overlapped

**Q.** What about the “Effect of knockdown of MFNs on cell death induced by the compound” value ([4]; CGP37157 50 or 100 µM, 12 h) of the same molecule?
**A.** weakly inhibited
